Patent US20040063695A1, “Cystic fibrosis transmembrane conductance regulator protein inhibitors and uses thereof” (priority 2002, published 2004)
Entries after “also recorded” stand apart in the source; their conditions may differ. Like-named read-outs stand apart in the source and are kept apart here.

Columns and labels:
[1] = biological target: T1, human wildtype CFTR (Homo sapiens, UniProt P13569); experiment: YFP fluorescence assay of CFTR-mediated I− transport in FRT cells; assay type: cell-based; details: relative to CFTRinh-172 = 1.0
T1 construct: expressed in transfected cells; host or cells: Fischer rat thyroid (FRT) cells, stably transfected, co-expressing YFP-H148Q

[2] = system: Calcium-sensitive Cl− channels; experiment: UTP-stimulated Ca2+-dependent Cl− secretion, short-circuit current in human bronchial epithelial cells; assay type: cell-based
[3] = system: Volume-sensitive Cl− channels; experiment: Volume-activated Cl− current, whole-cell patch clamp on FRT cells; assay type: cell-based, rat; details: 5 μM; 250 mosM/kg hypotonic solution
Description: FIG. 4B is a graphical representation of volume-activated Cl^− current (hypotonic 250 mosM/kg H2O) measured in whole-cell patch clamp experiments on FRT cells.

[4] = biological target: T2, water channel (AQP1) (Homo sapiens, UniProt P29972); experiment: Additional specificity study: water channel; details: 5 μM
T2 sequence (P29972 1-269): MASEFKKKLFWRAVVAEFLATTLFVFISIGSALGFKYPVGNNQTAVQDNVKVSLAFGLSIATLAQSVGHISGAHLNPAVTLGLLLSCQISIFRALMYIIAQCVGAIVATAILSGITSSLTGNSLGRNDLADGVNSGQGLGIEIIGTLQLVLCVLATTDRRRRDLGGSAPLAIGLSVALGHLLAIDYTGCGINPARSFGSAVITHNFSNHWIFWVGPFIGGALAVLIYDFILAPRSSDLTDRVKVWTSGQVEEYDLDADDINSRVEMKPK

[5] = biological target: T3, urea transporter (UT-B) (Homo sapiens, UniProt Q13336); experiment: Additional specificity study: urea transporter; details: 5 μM
T3 sequence (Q13336 1-389): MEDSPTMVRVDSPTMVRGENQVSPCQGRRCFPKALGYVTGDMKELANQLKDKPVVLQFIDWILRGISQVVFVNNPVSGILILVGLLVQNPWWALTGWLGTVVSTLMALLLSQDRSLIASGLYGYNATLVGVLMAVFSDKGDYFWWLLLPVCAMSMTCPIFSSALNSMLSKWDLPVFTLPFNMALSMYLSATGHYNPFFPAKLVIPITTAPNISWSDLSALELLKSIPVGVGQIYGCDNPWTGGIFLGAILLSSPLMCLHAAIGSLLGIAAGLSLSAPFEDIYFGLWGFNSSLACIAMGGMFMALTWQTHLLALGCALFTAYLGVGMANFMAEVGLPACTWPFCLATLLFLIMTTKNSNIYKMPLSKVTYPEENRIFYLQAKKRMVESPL

[6] = biological target: T4, Na+/H+ exchanger (NEE3) (Homo sapiens, UniProt P48764); experiment: Additional specificity study: Na+/H+ exchanger; details: 5 μM
T4 sequence (P48764 26-834): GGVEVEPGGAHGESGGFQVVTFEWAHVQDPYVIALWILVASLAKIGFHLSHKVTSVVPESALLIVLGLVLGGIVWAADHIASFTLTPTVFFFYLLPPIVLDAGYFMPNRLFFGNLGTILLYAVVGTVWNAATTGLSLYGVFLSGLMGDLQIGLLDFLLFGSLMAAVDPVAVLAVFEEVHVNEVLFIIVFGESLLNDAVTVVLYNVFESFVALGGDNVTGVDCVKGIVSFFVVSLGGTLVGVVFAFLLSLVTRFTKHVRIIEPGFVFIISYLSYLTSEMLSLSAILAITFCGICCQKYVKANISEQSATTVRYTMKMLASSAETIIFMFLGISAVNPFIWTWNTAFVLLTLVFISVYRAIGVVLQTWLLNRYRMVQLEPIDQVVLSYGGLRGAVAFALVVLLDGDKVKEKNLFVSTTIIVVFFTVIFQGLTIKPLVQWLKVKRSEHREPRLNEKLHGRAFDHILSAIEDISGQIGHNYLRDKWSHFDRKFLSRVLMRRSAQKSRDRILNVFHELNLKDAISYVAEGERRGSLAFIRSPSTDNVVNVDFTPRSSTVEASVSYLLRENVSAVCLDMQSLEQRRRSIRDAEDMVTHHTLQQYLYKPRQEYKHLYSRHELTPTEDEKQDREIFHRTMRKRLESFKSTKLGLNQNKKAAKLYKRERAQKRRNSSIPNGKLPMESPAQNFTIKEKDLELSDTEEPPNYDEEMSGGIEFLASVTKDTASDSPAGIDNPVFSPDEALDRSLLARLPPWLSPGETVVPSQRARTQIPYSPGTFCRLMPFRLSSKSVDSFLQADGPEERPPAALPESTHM

[7] = biological target: T5, Cl−/HCO3− exchanger (AEI) (Homo sapiens, UniProt P02730); experiment: Additional specificity study: Cl−/HCO3− exchanger; details: 5 μM
T5 sequence (P02730 1-911): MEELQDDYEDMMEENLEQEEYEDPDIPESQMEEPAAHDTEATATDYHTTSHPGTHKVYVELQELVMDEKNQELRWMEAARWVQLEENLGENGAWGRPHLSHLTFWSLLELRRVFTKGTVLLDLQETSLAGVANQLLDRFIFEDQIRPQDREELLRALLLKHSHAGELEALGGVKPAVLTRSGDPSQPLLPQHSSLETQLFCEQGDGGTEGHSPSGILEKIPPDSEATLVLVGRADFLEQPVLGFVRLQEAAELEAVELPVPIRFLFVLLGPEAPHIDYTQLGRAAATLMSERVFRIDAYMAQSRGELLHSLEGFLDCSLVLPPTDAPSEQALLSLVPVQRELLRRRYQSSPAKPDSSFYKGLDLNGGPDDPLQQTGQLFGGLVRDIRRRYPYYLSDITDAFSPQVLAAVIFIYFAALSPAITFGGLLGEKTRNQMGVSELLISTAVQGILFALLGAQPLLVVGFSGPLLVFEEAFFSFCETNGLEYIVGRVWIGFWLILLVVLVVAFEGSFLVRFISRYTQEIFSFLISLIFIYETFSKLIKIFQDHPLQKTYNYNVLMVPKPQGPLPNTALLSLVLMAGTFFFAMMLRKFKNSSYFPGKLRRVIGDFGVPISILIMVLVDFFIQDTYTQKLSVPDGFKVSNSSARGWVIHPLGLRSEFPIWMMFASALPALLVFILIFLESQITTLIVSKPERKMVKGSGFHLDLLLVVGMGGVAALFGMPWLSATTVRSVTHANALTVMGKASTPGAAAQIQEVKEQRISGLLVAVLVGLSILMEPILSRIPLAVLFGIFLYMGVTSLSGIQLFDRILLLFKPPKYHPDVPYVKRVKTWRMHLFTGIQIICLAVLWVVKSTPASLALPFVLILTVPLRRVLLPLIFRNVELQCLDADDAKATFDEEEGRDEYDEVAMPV

[8] = Animal toxicity in mice; assay type: in vivo
[9] = system: cholera toxin-induced intestinal fluid secretion; design: species or system mice; details: mouse, in vivo, ip
[10] = biological target: T6, CFTR Cl− channel (Rattus norvegicus, UniProt P34158); experiment: Short-circuit current in isolated rat colonic mucosa; details: amiloride, forskolin 20 μM
T6 construct: from tissue; host or cells: rat colon mucosa strips
T6 sequence (P34158 whole entry): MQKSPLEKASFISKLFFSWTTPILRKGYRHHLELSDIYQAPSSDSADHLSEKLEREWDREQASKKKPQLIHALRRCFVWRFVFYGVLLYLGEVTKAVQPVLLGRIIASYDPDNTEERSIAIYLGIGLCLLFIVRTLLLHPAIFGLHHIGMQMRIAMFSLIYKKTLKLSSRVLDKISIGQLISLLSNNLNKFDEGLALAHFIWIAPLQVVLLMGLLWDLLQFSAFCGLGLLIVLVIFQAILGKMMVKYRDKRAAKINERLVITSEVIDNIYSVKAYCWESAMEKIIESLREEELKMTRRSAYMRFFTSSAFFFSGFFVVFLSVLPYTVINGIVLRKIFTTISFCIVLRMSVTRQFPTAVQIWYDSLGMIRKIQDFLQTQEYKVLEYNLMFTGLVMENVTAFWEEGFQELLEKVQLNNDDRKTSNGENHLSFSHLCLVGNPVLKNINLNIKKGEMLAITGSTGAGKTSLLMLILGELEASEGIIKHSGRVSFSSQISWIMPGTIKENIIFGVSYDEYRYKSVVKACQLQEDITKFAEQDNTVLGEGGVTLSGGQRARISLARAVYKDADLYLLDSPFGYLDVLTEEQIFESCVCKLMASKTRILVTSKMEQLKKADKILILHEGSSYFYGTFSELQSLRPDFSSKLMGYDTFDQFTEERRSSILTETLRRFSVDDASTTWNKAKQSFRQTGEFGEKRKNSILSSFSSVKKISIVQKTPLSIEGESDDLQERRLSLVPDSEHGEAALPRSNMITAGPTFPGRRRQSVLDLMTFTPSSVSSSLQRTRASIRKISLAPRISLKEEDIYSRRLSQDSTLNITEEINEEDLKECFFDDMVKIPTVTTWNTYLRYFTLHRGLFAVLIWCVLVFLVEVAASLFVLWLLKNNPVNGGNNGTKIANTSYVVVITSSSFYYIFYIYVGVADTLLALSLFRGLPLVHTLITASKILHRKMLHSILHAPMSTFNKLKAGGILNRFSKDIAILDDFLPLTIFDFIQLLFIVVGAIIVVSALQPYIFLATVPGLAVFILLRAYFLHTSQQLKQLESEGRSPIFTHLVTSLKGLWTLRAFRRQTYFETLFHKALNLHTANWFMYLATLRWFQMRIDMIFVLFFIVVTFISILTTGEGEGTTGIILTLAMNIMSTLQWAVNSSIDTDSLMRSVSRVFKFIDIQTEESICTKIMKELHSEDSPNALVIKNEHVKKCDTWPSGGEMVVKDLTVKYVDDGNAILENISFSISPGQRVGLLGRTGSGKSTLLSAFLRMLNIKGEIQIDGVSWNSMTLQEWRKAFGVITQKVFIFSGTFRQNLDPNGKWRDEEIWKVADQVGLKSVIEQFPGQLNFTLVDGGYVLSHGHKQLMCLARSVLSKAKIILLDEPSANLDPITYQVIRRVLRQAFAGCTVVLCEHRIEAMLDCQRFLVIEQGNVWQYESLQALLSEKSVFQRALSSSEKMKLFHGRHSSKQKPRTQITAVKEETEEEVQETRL

[11] = biological target: MDR-1 (Homo sapiens, UniProt P08183)
Chain of MDR-1 (P08183 whole entry): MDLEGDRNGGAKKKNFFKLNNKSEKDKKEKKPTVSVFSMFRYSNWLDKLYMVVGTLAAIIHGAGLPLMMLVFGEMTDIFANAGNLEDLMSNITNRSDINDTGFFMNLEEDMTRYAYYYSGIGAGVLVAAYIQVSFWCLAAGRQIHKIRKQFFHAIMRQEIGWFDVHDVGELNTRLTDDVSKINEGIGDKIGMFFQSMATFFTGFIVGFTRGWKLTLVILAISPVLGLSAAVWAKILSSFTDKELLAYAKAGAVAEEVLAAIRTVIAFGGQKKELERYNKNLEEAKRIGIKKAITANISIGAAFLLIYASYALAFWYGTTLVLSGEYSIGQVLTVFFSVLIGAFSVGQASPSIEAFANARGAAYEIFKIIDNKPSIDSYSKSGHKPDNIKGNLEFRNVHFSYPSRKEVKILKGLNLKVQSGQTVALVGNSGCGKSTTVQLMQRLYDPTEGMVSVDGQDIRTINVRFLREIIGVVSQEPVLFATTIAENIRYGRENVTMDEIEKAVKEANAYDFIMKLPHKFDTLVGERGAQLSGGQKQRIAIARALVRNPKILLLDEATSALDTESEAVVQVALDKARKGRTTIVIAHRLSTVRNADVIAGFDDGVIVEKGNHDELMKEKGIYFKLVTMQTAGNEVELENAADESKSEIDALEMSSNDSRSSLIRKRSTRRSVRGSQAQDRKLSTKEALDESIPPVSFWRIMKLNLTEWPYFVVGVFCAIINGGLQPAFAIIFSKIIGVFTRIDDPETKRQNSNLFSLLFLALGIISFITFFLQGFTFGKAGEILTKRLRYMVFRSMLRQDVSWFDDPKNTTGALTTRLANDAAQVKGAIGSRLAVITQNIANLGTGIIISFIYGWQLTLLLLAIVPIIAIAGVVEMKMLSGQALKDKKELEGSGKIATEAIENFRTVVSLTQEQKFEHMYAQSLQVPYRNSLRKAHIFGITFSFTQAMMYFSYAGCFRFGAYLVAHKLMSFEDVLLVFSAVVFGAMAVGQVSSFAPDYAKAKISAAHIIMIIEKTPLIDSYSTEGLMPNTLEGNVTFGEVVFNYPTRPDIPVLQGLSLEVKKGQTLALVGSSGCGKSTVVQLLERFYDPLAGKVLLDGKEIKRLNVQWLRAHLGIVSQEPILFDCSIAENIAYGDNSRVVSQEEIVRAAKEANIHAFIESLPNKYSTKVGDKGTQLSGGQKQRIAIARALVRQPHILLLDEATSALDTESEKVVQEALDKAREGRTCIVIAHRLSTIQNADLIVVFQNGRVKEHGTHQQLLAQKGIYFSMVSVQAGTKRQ

[12] = system: phosphatase activity; experiment: Phosphatase assay; details: 5 μM
[13] = system: cellular cAMP production; experiment: Intracellular cAMP assay in FRT cells
[14] = system: FRT cells; experiment: Cell toxicity by the dihydrorhodamine method; details: after 24 hours, dihydrorhodamine assay
[15] = mice, intraperitoneal 1000 μg/kg daily for 7 days

## O=C(O)c1ccccc1C=C1SC(=S)N(c2ccccc2C(F)(F)F)C1=O [a=2, b=2, 3-[(a-trifluoromethyl)phenyl]-5-[(b-carboxyphenyl)methylene]-2-thioxo-4-thiazolidinone]
[1]
  relative potency (CFTR inhibitory activity): 0.69

## 3-[(3-trifluoromethyl)phenyl]-5-[(4-carboxyphenyl)methylene]-2-thioxo-4-thiazolidinone [CFTRinh-172]
[2]; 5 μM, UTP 100 μM apical
  effect on Ca2+ activated Cl− secretion: did not inhibit
[2]; in the presence of 5 μM inhibitor (SE, n=4)
  maximal UTP-dependent short-circuit current: 10.0±0.2 μA/cm^2
[3]
  effect on volume-activated Cl− currents: did not block
[4]
  block of water channel (AQP1): did not block
[5]
  block of urea transporter (UT-B): did not block
[6]
  block of Na+/H+ exchanger (NEE3): did not block
[7]
  block of Cl−/HCO3− exchanger (AEI): did not block
[8]; [15]
  food and water intake: not diminished
  overt toxicity: did not cause overt toxicity
  serum electrolyte concentrations, glucose, liver function indices, serum creatinine, amylase and hematocrit: not changed
[8]; single systemic dose 10 mg/kg
  overt toxicity: did not cause overt toxicity
[9]
  fluid accumulation in cholera toxin-treated ileal loops: effectively prevented fluid accumulation; also recorded: significantly reduced fluid secretion to that in saline control loops
[10]; 5 μM in mucosal solution alone
  reduction of short-circuit current: > 80%
[10]
  efficacy of short-circuit current inhibition, mucosal vs. serosal addition: greater efficacy
[11]; 5 μM
  vincristine accumulation: did not affect vincristine accumulation
[12]
  effect on phosphatase activity: did not affect
[13]; 5 μM
  effect on cellular cAMP production: did not affect
[13]; 30 min after 20 μM forskolin, + inhibitor (n=3)
  cAMP content: 1140±50 fmol/well
[14]
  concentrations non-toxic to FRT cells: up to 100 μM

## O=C(O)c1ccccc1C=C1SC(=S)N(c2ccccc2C(F)(F)F)C1=O [3, 3, 3-[(a-trifluoromethyl)phenyl]-5-[(b-carboxyphenyl)methylene]-2-thioxo-4-thiazolidinone]
[1]
  relative potency (CFTR inhibitory activity): 0.90

## O=C1S/C(=C\c2ccc(O)c(O)c2)C(=S)N1c1cccc(C(F)(F)F)c1 [CFTRinh-185, 3-[(3-trifluoromethyl)phenyl]-5-[(3,4-dihydroxyphenyl)methylene]-2-thioxo-4-thiazolidinone]
[1]
  relative potency (CFTR inhibitory activity): 0.2

## O=C(O)Oc1ccc(/C=C2\SC(=O)N(c3cccc(C(F)(F)F)c3)C2=S)cc1 [CFTRinh-029, 3-[(3-trifluoromethyl)phenyl]-5-[(4-oxycarboxyphenyl)methylene]-2-thioxo-4-thiazolidinone]
[1]
  relative potency (CFTR inhibitory activity): 0.3

## O=C(O)c1ccccc1C=C1SC(=S)N(c2ccccc2C(F)(F)F)C1=O [4, 3, 3-[(a-trifluoromethyl)phenyl]-5-[(b-carboxyphenyl)methylene]-2-thioxo-4-thiazolidinone]
[1]
  relative potency (CFTR inhibitory activity): 0.64

## O=C(O)c1ccccc1C=C1SC(=S)N(c2ccccc2C(F)(F)F)C1=O [3, 2, 3-[(a-trifluoromethyl)phenyl]-5-[(b-carboxyphenyl)methylene]-2-thioxo-4-thiazolidinone]
[1]
  relative potency (CFTR inhibitory activity): 0.74

## O=C(O)c1ccccc1C=C1SC(=S)N(c2ccccc2C(F)(F)F)C1=O [2, 3, 3-[(a-trifluoromethyl)phenyl]-5-[(b-carboxyphenyl)methylene]-2-thioxo-4-thiazolidinone]
[1]
  relative potency (CFTR inhibitory activity): 0.70

## O=C(O)c1ccccc1C=C1SC(=S)N(c2ccccc2C(F)(F)F)C1=O [4, 4, 3-[(a-trifluoromethyl)phenyl]-5-[(b-carboxyphenyl)methylene]-2-thioxo-4-thiazolidinone]
[1]
  relative potency (CFTR inhibitory activity): 0.56

## COc1ccc(CCN(C)CCCC(C#N)(c2ccc(OC)c(OC)c2)C(C)C)cc1OC (stereo not drawn) [verapamil, reference compound]
[11]; 100 μM
  vincristine accumulation: strongly increased

## O=C(O)c1ccccc1C=C1SC(=S)N(c2ccccc2C(F)(F)F)C1=O [4, 2, 3-[(a-trifluoromethyl)phenyl]-5-[(b-carboxyphenyl)methylene]-2-thioxo-4-thiazolidinone]
[1]
  relative potency (CFTR inhibitory activity): 0.67

## O=C(O)c1ccccc1C=C1SC(=S)N(c2ccccc2C(F)(F)F)C1=O [2, 4, 3-[(a-trifluoromethyl)phenyl]-5-[(b-carboxyphenyl)methylene]-2-thioxo-4-thiazolidinone]
[1]
  relative potency (CFTR inhibitory activity): 0.66
